Source: PubChem BioAssay (NCI)
Where “and” joins values, the source holds several entries; their conditions need not be identical. Identical values can stand only once.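 1) Cells in 96-well plates. 2) Compound, 48 h, 5 concentrations. 3) Linear interpolation between surrounding doses. 4) Unreached endpoint = highest concentration. GI50: concentration for 50% inhibition of growth. TGI denotes the concentration required for complete inhibition of growth.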 *1 amine or outer side, *2 acyl side, *3 side chain or, on linkers, in order; H or OH if unused. Where a SMILES comes first, the peptide text is derived from it. Bridges are numbered along the chain shown (N, C = ends). [ ]: non-standard residue; d: D form. The star is where a group is joined. Phe(3-Me) = Cc1cccc(C[C@H](N)C(=O)O)c1; NH(4-Cl-2-F-phenyl) = Fc1cc(Cl)ccc1N*; Pro(4R-Me) = C[C@H]1CN[C@H](C(=O)O)C1; Hyp = O=C(O)[C@@H]1C[C@@H](O)CN1; aThr = C[C@H](O)[C@H](N)C(=O)O; Pip = O=C(O)[C@@H]1CCCCN1; CO = O=C([*:1])[*:2]

Tested on: MDA-MB-468 breast
Experiment: DTP human tumour cell line panel, 48 h

Structure (SMILES)	GI50	TGI
O=C1Nc2cc(OC(F)(F)F)ccc2Oc2ccc(-c3ccnc(N4CCNCC4)c3)cc21	0.394 µM	1.46 µM
C[C@@H]1CCN(C(=O)CC#N)C[C@@H]1N(C)c1ncnc2[nH]ccc12	> 100 µM	> 100 µM
C#CC[C@H](c1nc2cc(Cl)ccc2c(=O)n1Nc1ccccc1)N(CCCN)C(=O)c1cccc(Cl)c1F	0.0421 µM	0.755 µM
CN1CCN(Cc2ccc(NC(=O)c3[nH]ncc3Nc3ncnc4c3CCC4)cc2)CC1	2 µM	5.84 µM
COc1cc(-c2cc(-c3nc4ccccc4[nH]3)[nH]n2)cc(OC)c1OC	0.935 µM	16.6 µM
Cc1c(Cl)cccc1NC(=O)c1sc2nc3c(cc2c1N)CCCCCC3	0.13 µM	19.9 µM
O=c1[nH]nc2c3c(cccc13)NC(CN1Cc3ccccc3C1)=N2	7.92 µM	> 100 µM
O=[N+]([O-])c1cc(Br)cc2c1[nH]c1ccc(Br)cc12	7.52 µM	79.7 µM
CCN(CC)CCCC(C)Nc1cnc(C(=O)Nc2cc(F)cc3cccnc23)cn1 (configuration not stated)	2.83 µM and 0.327 µM	–
Cc1cccc(C[C@H](NC(=O)Nc2ccc(Cl)cc2F)C(=O)N[C@@H]2C(=O)N3C[C@H](O)C[C@H]3C(=O)N3CCCC[C@H]3C(=O)N[C@@H](C)C(=O)N3C[C@H](C)C[C@H]3C(=O)O[C@H]2C)c1 ({NH(4-Cl-2-F-phenyl)-CO}-[Phe(3-Me)][aThr][Hyp][Pip]A[Pro(4R-Me)]; ester 2-C)	0.253 µM	1.03 µM
COc1ccc(C2=C(c3cn(C)c4ccccc34)C(=O)NC2=O)cc1OC	5.86 µM	> 25 µM
CCc1ccc(CCC(=O)Nc2ncc(Cc3ccccc3)s2)o1	1.55 µM	> 100 µM
COc1ccc(Cn2cc3c(c2-c2cc(OC)c(OC)c(OC)c2)CCc2c(CN4CCCC4)noc2-3)cc1	0.28 µM	0.966 µM
CSc1ccc(/C(=N/N=C(N)N)c2ccc(F)cc2)cc1	0.398 µM	2.13 µM
c1cncc(CNc2ccccc2-c2nnc(Nc3ccc4c(c3)OCCO4)o2)c1	0.218 µM	0.821 µM
O=C(Nc1ccncc1)C(=O)c1cn(S(=O)(=O)c2ccccc2F)c2ccccc12	1.51 µM	9.81 µM
O=C(c1cc(-c2cc3c(cc2C(=O)N2Cc4ccccc4C[C@H]2CN2CCOCC2)OCO3)n2c1CCCC2)N(c1ccccc1)c1ccc(O)cc1	3.07 µM	96.2 µM
COc1ccc(C(=O)/C=C/c2cc(C(=O)c3cc(OC)c(OC)c(OC)c3)ccc2OC)cc1	3.03 µM	> 100 µM
CCc1nc2ccc(Cc3ccc(C(=O)NO)cc3)cc2c(=O)n1CCc1ccccc1	0.74 µM	2.97 µM
CCC(C)/C=C(C)/C=C/C(=O)c1c(O)c(-c2ccc(O)cc2)c[nH]c1=O (configuration not stated)	1.87 µM	7.76 µM
O=C(NNc1nc2cc(F)c(F)cc2n2c(CN3CC4CNCC4C3)ccc12)c1ncccn1 (configuration not stated)	2.04 µM	9.82 µM
COc1ccc(C2c3cc4c(cc3OC(N3CCOCC3)C2C)OCO4)c(OC)c1 (configuration not stated)	7.18 µM	32 µM
O=C(CNC(=O)c1cccc2ccccc12)Nc1ccccc1Oc1ccccc1	0.325 µM	5.9 µM
CCS(=O)(=O)c1ccc(OC)c(Nc2nccc(N(C)c3ccc4c(C)[nH]nc4c3)n2)c1	3.48 µM	9.32 µM

Structure (SMILES)	GI50	TGI
Cc1nn2c(/C=C3/C(=O)Nc4ccc(Cl)cc43)c(-c3ccccc3)nc2s1	3.47 µM	14.7 µM
CO/N=C1/NC(=O)/C(=C/c2ccc3ncccc3c2)S1	4.91 µM	> 25 µM
CN(C)CC#Cc1cccc(C(=O)c2cnn(-c3ccc(F)cc3)c2N)c1	13.3 µM	> 25 µM
Cn1c2ccccc2c2nnc(N/N=C/c3ccccn3)nc21	0.293 µM	–
Nc1ncc(-c2ccc(C(F)(F)F)cc2)c(NC2CCCCCC2)n1	4.15 µM	> 100 µM
Cc1ccc(NS(=O)(=O)c2cc(C)ccc2C)cc1	1.42 µM	7.28 µM
CCOc1cc2ncc(C#N)c(Nc3ccc(F)c(Cl)c3)c2cc1NC(=O)/C=C/CN(C)C	0.00238 µM	0.0351 µM
O=C(Nc1ccc(Nc2ccncc2)cc1)c1ccc(Nc2ccnc3ccc([N+](=O)[O-])cc23)cc1	> 100 µM	> 100 µM
COc1cccc(/C=C/C(=O)c2cc3c(N)c(C(=O)Nc4cccc(Cl)c4C)sc3nc2C)c1	0.778 µM	1.82 µM
Cc1c(CN2CCC(Nc3ncnc4sc(CC(F)(F)F)cc34)CC2)ccc2c1cc(C#N)n2Cc1cn[nH]c1	0.842 µM and 0.781 µM	3.82 µM and 6.25 µM
O=C1CNc2cc(N3CCN(c4cccc(C(F)(F)F)c4)CC3)ccc2N1	4.92 µM	43.6 µM
COc1ccc(C(=O)c2cc(OC)c(OC)c(OC)c2)cc1O	0.239 µM	0.779 µM
O=C(N/N=C/c1ccc(O)cc1O)c1ccc(Nc2ccnc(C(F)(F)F)c2)cc1	15.2 µM	> 100 µM
Cc1nc(Nc2ccc(F)c(Cl)c2)sc1C(=O)O	1.2 µM	3.79 µM
O=C(O)c1ccc(NS(=O)(=O)c2cccc3cccnc23)cc1	> 100 µM	> 100 µM
Cc1cc2c(C(N)=O)cccc2n1-c1nc2c(c(NCc3ccccc3)n1)CCCN2	0.223 µM	0.477 µM
O=C1C(Cl)=C(N2CCOCC2)C(=O)c2ccccc21	1.44 µM	2.94 µM
Cc1nc(NC(=S)Nc2ccc(F)cc2)sc1C(=O)NNC(=S)Nc1ccc(F)cc1	2.22 µM	9.53 µM
Cc1ccc(C(=O)N/N=C/c2cccc(Oc3ccccc3)c2)cn1	4.43 µM	> 34.9 µM
COC[C@H]1OC(=O)c2coc3c2[C@@]1(C)C1=C(C3=O)[C@@H]2CCC(=O)[C@@]2(C)C[C@H]1OC(C)=O	0.421 µM	4.62 µM
CC1(C)N=C(N)N=C(N)N1c1cccc(CCCCc2ccc(S(=O)(=O)F)cc2Cl)c1	2.13 µM	18.8 µM
COc1ccc(/C=C(\C#N)c2cc(OC)c3c(c2)OCO3)cc1	0.0173 µM	0.15 µM
N#CSCC1CC(O)(c2ccccc2)C(c2ccccc2)C(c2ccc(F)cc2)O1 (configuration not stated)	3.51 µM	13.1 µM
